From PubChem BioAssay (NCI)
Several values for one entry are separate records, joined by “and”; a condition that tells them apart may be missing. Equal values may be shown once.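 Compound exposure: 48 hours, 5 concentrations, 96-well plates. GI50: concentration for 50% inhibition of growth. TGI denotes the concentration required for complete inhibition of growth.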

How the values were obtained:
Experiment in all cases: inhibition of tumour cell growth, NCI panel, 48 h
SW-620 colon = tested on: SW-620 colon
HL-60(TB) leukemia = tested on: HL-60(TB) leukemia
HOP-92 NSCLC = tested on: HOP-92 NSCLC
SK-MEL-28 melanoma = tested on: SK-MEL-28 melanoma
MDA-MB-231 breast = tested on: MDA-MB-231 breast
HS 578T breast = tested on: HS 578T breast
M14 melanoma = tested on: M14 melanoma
MDA-N = tested on: MDA-N
KM12 colon = tested on: KM12 colon

CN(C)c1ccc(/C=c2/c3cc(O)ccc3n3c2cc(-c2ccccc2)[n+]3C)cc1
GI50 (SW-620 colon): 1.77 µM | TGI (HL-60(TB) leukemia): 1.05 µM | TGI (HOP-92 NSCLC): 3.9 µM | TGI (SK-MEL-28 melanoma): 2.36 µM | TGI (MDA-MB-231 breast): 2.82 µM | TGI (HS 578T breast): 1.25 µM | TGI (M14 melanoma): 2.89 µM | TGI (MDA-N): 1.96 µM | TGI (KM12 colon): 2.29 µM

NC(=O)c1csc(-c2ccc(CO)o2)n1
TGI (SW-620 colon): > 100 µM | TGI (HL-60(TB) leukemia): > 100 µM | TGI (HOP-92 NSCLC): > 100 µM | TGI (SK-MEL-28 melanoma): > 100 µM | TGI (MDA-MB-231 breast): > 100 µM | TGI (M14 melanoma): > 100 µM | TGI (MDA-N): > 100 µM | TGI (KM12 colon): > 100 µM

CC[C@@H](C)/C=C(C)/C=C/C(=O)c1c(O)c(-c2ccc(O)cc2)cn(OC2CC(=O)CCC(C)OC(=O)CC2O)c1=O (stereo partly specified)
GI50 (SW-620 colon): 0.562 µM | TGI (SW-620 colon): 16.4 µM | GI50 (HL-60(TB) leukemia): 0.212 µM | TGI (HL-60(TB) leukemia): 2.86 µM | GI50 (HOP-92 NSCLC): 0.509 µM | TGI (HOP-92 NSCLC): 18.6 µM | GI50 (SK-MEL-28 melanoma): 0.552 µM | TGI (SK-MEL-28 melanoma): 19.5 µM | GI50 (MDA-MB-231 breast): 0.85 µM | TGI (MDA-MB-231 breast): 24.3 µM | GI50 (HS 578T breast): 2.36 µM | TGI (HS 578T breast): > 67.2 µM | GI50 (M14 melanoma): 0.258 µM | TGI (M14 melanoma): 2.38 µM | GI50 (KM12 colon): 1.56 µM | TGI (KM12 colon): 14.7 µM

O=C(O)c1ccc(/C=N/N=C2c3ccccc3-c3ccccc32)cc1
TGI (SW-620 colon): > 100 µM | TGI (HL-60(TB) leukemia): > 100 µM | TGI (HOP-92 NSCLC): > 100 µM | TGI (SK-MEL-28 melanoma): > 100 µM | TGI (MDA-MB-231 breast): > 100 µM | TGI (HS 578T breast): 53.1 µM | TGI (M14 melanoma): > 100 µM | TGI (MDA-N): > 100 µM | TGI (KM12 colon): > 100 µM

C[C@]12CC[C@@H]3c4ccc(OC(=O)N(CCCl)CCCl)cc4CC[C@H]3[C@@H]1CC[C@@H]2OP(=O)(O)O
GI50 (SW-620 colon): > 80.7 µM | TGI (SW-620 colon): > 100 µM | GI50 (HL-60(TB) leukemia): 30.1 µM | TGI (HL-60(TB) leukemia): 98.5 µM | GI50 (HOP-92 NSCLC): > 100 µM | TGI (HOP-92 NSCLC): > 100 µM | GI50 (SK-MEL-28 melanoma): 37.3 µM | TGI (SK-MEL-28 melanoma): > 100 µM | GI50 (MDA-MB-231 breast): 26.8 µM | TGI (MDA-MB-231 breast): > 64.3 µM | GI50 (HS 578T breast): 26.7 µM | TGI (HS 578T breast): > 76.9 µM | GI50 (M14 melanoma): 37.7 µM | TGI (M14 melanoma): > 100 µM | GI50 (KM12 colon): 40.3 µM | TGI (KM12 colon): > 100 µM

CN1CCN(CCC=C2c3ccccc3Sc3ccc(S(=O)(=O)N(C)C)cc32)CC1
GI50 (SW-620 colon): 3.58 µM and 2.85 µM | TGI (SW-620 colon): 19.9 µM and 8.62 µM | GI50 (HL-60(TB) leukemia): 2.38 µM and 2.41 µM | TGI (HL-60(TB) leukemia): 4.65 µM | GI50 (HOP-92 NSCLC): 0.516 µM and 2.84 µM | TGI (HOP-92 NSCLC): 4.54 µM and 20.3 µM | GI50 (SK-MEL-28 melanoma): 1.8 µM and 1.77 µM | TGI (SK-MEL-28 melanoma): 3.22 µM and 3.35 µM | GI50 (MDA-MB-231 breast): 1.82 µM and 4.4 µM | TGI (MDA-MB-231 breast): 4.43 µM and 16.8 µM | GI50 (HS 578T breast): 3.4 µM and 3 µM | TGI (HS 578T breast): 23.2 µM and 14.8 µM | GI50 (M14 melanoma): 1.97 µM and 2.1 µM | TGI (M14 melanoma): 3.63 µM and 4.57 µM | GI50 (KM12 colon): 3.96 µM and 4.68 µM | TGI (KM12 colon): 24.3 µM and 16.4 µM

O=C(Nc1cccc(-n2cc(-c3ccncc3)c(-c3ccc(Cl)c(O)c3)n2)c1)Nc1ccc(Cl)c(Cl)c1
GI50 (SW-620 colon): 1.46 µM | TGI (SW-620 colon): > 32.5 µM | GI50 (HL-60(TB) leukemia): 0.515 µM | TGI (HL-60(TB) leukemia): > 32.5 µM | GI50 (HOP-92 NSCLC): 0.679 µM | TGI (HOP-92 NSCLC): 1.91 µM | GI50 (SK-MEL-28 melanoma): 1.46 µM | TGI (SK-MEL-28 melanoma): 9.85 µM | GI50 (MDA-MB-231 breast): 1.18 µM | TGI (MDA-MB-231 breast): 8.33 µM | GI50 (HS 578T breast): 0.785 µM | TGI (HS 578T breast): 3.15 µM | GI50 (M14 melanoma): 1.18 µM | TGI (M14 melanoma): 6.97 µM | GI50 (KM12 colon): 1.01 µM | TGI (KM12 colon): 4.47 µM

CC[C@@]1(O)C(=O)OCc2c1cc1n(c2=O)Cc2c-1nc1cc(F)c(C)c3c1c2[C@@H](NC(=O)CO)CC3
GI50 (SW-620 colon): < 0.01 µM | TGI (SW-620 colon): > 44.2 µM | GI50 (HL-60(TB) leukemia): < 0.01 µM | TGI (HL-60(TB) leukemia): 0.781 µM | GI50 (HOP-92 NSCLC): < 0.0125 µM | TGI (HOP-92 NSCLC): 0.355 µM | GI50 (SK-MEL-28 melanoma): 0.176 µM | TGI (SK-MEL-28 melanoma): 4.56 µM | GI50 (MDA-MB-231 breast): 0.511 µM | TGI (MDA-MB-231 breast): > 100 µM | GI50 (HS 578T breast): 1.25 µM | TGI (HS 578T breast): > 100 µM | GI50 (M14 melanoma): < 0.01 µM | TGI (M14 melanoma): 0.0957 µM | GI50 (KM12 colon): 0.149 µM | TGI (KM12 colon): > 100 µM
